# In patent US9371337B2, “β-lactamase inhibitors” (The Regents of the University of California, priority 2011, dated 2016):
# How the values were obtained:
# [1] = tested on: P. aeruginosa, AmpC-overproducing; assay: MIC of third-generation cephalosporins alone and with compounds (Table 6); assay type: cell-based, Pseudomonas aeruginosa; conditions: antibiotic alone
# Description: (§1) The anti-resistance activity of inhibitors was investigated by the determination of the minimum inhibitory concentrations (MICs) of the β-lactam/inhibitor combination necessary to inhibit the growth of clinically-isolated bacteria resistant to third-generation cephalosporins via expression of class A or class C β-lactamases (Table 6).
# (§2) Susceptibility testing was performed and interpreted following the guidelines of CLSI. (Clinical and Laboratory Standards Institute, Performance standards for antimicrobial susceptibility testing, 20th Informational Supplement, M100-S20 2010) The compounds were dissolved in 50% DMSO, and dilutions were performed using Muller-Hinton medium. An adequate final concentration was obtained to determine the minimum inhibitory concentrations (MICs). The concentration of DMSO was maintained below 5%. The inhibitors were tested for synergy with the third-generation β-lactams ceftazidime and cefotaxime against several clinical bacteria. The ratio of β-lactams to inhibitors was 1:4. Each value reported reflects the average of three independent experiments. […] The Friedman's test and the Wilcoxon signed rank test were used to compare MIC values. Statistical significance was established at p<0.05.
# Table 6. MICs (μg/ml) of third-generation cephalosporins alone and in association with the compounds (ratio 1/4) for clinical bacteria. […]
# [2] = tested on: OXA-48-producing K. pneumoniae; assay: as above; assay type: cell-based, Klebsiella pneumoniae; conditions: antibiotic alone
# Description: as §1, §2
# (§3) Table 6. MICs (μg/ml) of third-generation cephalosporins alone and in association with the compounds (ratio 1/4) for clinical bacteria. CTX, cefotaxime and CAZ, ceftazidime. ^1, AmpC-overproducing bacteria; ^2, CTX-M-14-producing E. coli; ^3, KPC-2-producing K. pneumoniae; ^4, OXA-48-producing K. pneumoniae; ^5, NDM-1-producing C. freundii.
# [3] = tested on: K. pneumoniae, AmpC-overproducing; assay: as above; assay type: cell-based, Klebsiella pneumoniae; conditions: antibiotic alone
# Description: as §1, §2, §3
# [4] = tested on: K. pneumoniae producing the plasmid-mediated class C β-lactamase DHA-1; assay: MIC of third-generation cephalosporins alone and with compounds 4 or 9 (Table 3); assay type: cell-based, Klebsiella pneumoniae; conditions: antibiotic alone
# Source text: (§4) Antimicrobial activity was investigated quantitatively to determine the minimum inhibitory concentrations (MICs) of the β-lactam/inhibitor combination necessary to inhibit the bacterial growth (Table 3). The MICs of β-lactams alone against the strains corresponded to a high level of resistance according to Clinical and Laboratory Standards Institute (CLSI) standards. (Clinical and Laboratory Standards Institute, Performance standards for antimicrobial susceptibility testing, 20th Informational Supplement, M100-S20 2010) The compounds had no measurable antibiotic activity when used alone.
# (§5) Susceptibility testing was performed and interpreted following the guidelines of CLSI. (Clinical and Laboratory Standards Institute, Performance standards for antimicrobial susceptibility testing, 20th Informational Supplement, M100-S20 2010) The compounds were dissolved in 50% DMSO, and dilutions were performed using Muller-Hinton medium. An adequate final concentration was obtained to determine the minimum inhibitory concentrations (MICs). The concentration of DMSO was maintained below 5%. The inhibitors were tested for synergy with the third-generation β-lactams ceftazidime and cefotaxime against several clinical bacteria. […] Each value reported reflects the average of three independent experiments. […] A Klebsiella pneumoniae isolate produced the inducible plasmid-mediated class C enzyme DHA-1. The Friedman's test and the Wilcoxon signed rank test were used to compare MIC values. Statistical significance was established at p<0.05.
# [5] = tested on: E. coli, AmpC-overproducing; assay: MIC of third-generation cephalosporins alone and with compounds (Table 6); assay type: cell-based, Escherichia coli; conditions: antibiotic alone
# Description: as §1, §2, §3
# [6] = tested on: E. coli 146, AmpC-overproducing; assay: as above; assay type: cell-based, Escherichia coli; conditions: antibiotic alone
# Description: as §1, §2, §3
# [7] = tested on: E. coli 142, AmpC-overproducing; assay: as above; assay type: cell-based, Escherichia coli; conditions: antibiotic alone
# Description: as §1, §2, §3
# [8] = tested on: E. coli 145, AmpC-overproducing; assay: as above; assay type: cell-based, Escherichia coli; conditions: antibiotic alone
# Description: as §1, §2, §3
# [9] = tested on: E. coli R1, AmpC-overproducing; assay: as above; assay type: cell-based, Escherichia coli; conditions: antibiotic alone
# Description: as §1, §2, §3
# [10] = tested on: E. coli 144, AmpC-overproducing; assay: as above; assay type: cell-based, Escherichia coli; conditions: antibiotic alone
# Description: as §1, §2, §3
# [11] = tested on: CTX-M-14-producing E. coli; assay: as above; assay type: cell-based, Escherichia coli; conditions: antibiotic alone
# Description: as §1, §2, §3
# [12] = tested on: C. freundii overproducing chromosomally-mediated class C β-lactamase; assay: MIC of third-generation cephalosporins alone and with compounds 4 or 9 (Table 3); assay type: cell-based, Citrobacter freundii; conditions: antibiotic alone
# Source text: as §4, §5
# [13] = tested on: E. cloacae overproducing chromosomally-mediated class C β-lactamase; assay: as above; assay type: cell-based, Enterobacter cloacae; conditions: antibiotic alone
# Source text: as §4, §5
# [14] = tested on: E. coli overproducing chromosomally-mediated class C β-lactamase; assay: as above; assay type: cell-based, Escherichia coli; conditions: antibiotic alone
# Source text: as §4, §5
# [15] = tested on: E. coli producing plasmid-mediated class A β-lactamase CTX-M-14; assay: as above; assay type: cell-based, Escherichia coli; conditions: antibiotic alone
# Source text: as §4, §5
# [16] = tested on: E. cloacae 135, AmpC-overproducing; assay: MIC of third-generation cephalosporins alone and with compounds (Table 6); assay type: cell-based, Enterobacter cloacae; conditions: antibiotic alone
# Description: as §1, §2, §3
# [17] = tested on: E. cloacae, AmpC-overproducing; assay: as above; assay type: cell-based, Enterobacter cloacae; conditions: antibiotic alone
# Description: as §1, §2, §3
# [18] = tested on: C. freundii 101, AmpC-overproducing; assay: as above; assay type: cell-based, Citrobacter freundii; conditions: antibiotic alone
# Description: as §1, §2, §3
# [19] = tested on: NDM-1-producing C. freundii; assay: as above; assay type: cell-based, Citrobacter freundii; conditions: antibiotic alone
# Description: as §1, §2, §3
# [20] = tested on: C. freundii, AmpC-overproducing; assay: as above; assay type: cell-based, Citrobacter freundii; conditions: antibiotic alone
# Description: as §1, §2, §3
# [21] = tested on: P. aeruginosa overproducing chromosomally-mediated class C β-lactamase; assay: MIC of third-generation cephalosporins alone and with compounds 4 or 9 (Table 3); assay type: cell-based, Pseudomonas aeruginosa; conditions: antibiotic alone
# Source text: as §4, §5
# [22] = tested on: AmpC-overproducing Escherichia coli strain 4; assay: Mouse model of bacteremia and sepsis, survival; assay type: in vivo, OF1 mice; conditions: 120 h post infection; ip at 0.5, 3.5, 6.5 h; imipenem 50 mg/kg, cefotaxime 50 mg/kg, cefotaxime:CR161 50:200 mg/kg
# Description: FIG. 17. Percentage of survival of mice infected with AmpC-overproducing Escherichia coli over the course of 5 days (120 h). Mice were inoculated by intraperitoneal injection with AmpC-overproducing Escherichia coli strain 4 (1±0.5 10^9 colony-forming units) and treated at 0.5, 3.5, 6.5 h after infection by intraperitoneal injection of 50 mg/kg imipenem (□, n=20), 50:200 mg/kg cefotaxime:CR161 combination (▪, n=17), 50 mg/kg cefotaxime (●, n=20) or sterile isotonic saline (◯, n=20).
# Efficacy in a mouse model of infection. We had not observed such substantial reversal of bacterial resistance to β-lactams, across such a broad spectrum of clinical isolates, for previous series of boronic acid inhibitors of β-lactamase; indeed, this lack of efficacy had motivated this study. These new cell-culture MIC values inspired us to investigate the efficacy of one of these compounds in a mouse model of bacteremia and sepsis. […] Mice were treated with cefotaxime alone, cefotaxime combined with compound CR161, with sterile isotonic saline, and with imipenem as a reference treatment of systemic infections by cephalosporin-resistant enterobacteriaceae (FIG. 17); 20 mice were used in each clade. […]
# OF1 mice 4-5 weeks of age and weighing 20-25 g were used in this study. […] The survival of mice in each group was monitored every 6 h for 5 days after infection. […]
smiles,measurement,setting,value
CC(C)(O/N=C(\C(=O)N[C@@H]1C(=O)N2C(C(=O)[O-])=C(C[n+]3ccccc3)CS[C@H]12)c1csc(N)n1)C(=O)O [Ceftazidime],"MIC, cephalosporin alone",[1],32 µg/mL
same,"MIC, cephalosporin alone",[2],256 µg/mL
same,"MIC, cephalosporin alone",[3],32 µg/mL
same,"MIC, cephalosporin alone",[4],32 µg/mL
same,"MIC, cephalosporin alone",[5],128 µg/mL
same,"MIC, cephalosporin alone",[6],64 µg/mL
same,"MIC, cephalosporin alone",[7],32 µg/mL
same,"MIC, cephalosporin alone",[8],128 µg/mL
same,"MIC, cephalosporin alone",[9],8 µg/mL
same,"MIC, cephalosporin alone",[10],64 µg/mL
same,"MIC, cephalosporin alone",[11],2 µg/mL
same,"MIC, cephalosporin alone",[12],64 µg/mL
same,"MIC, cephalosporin alone",[13],64 µg/mL
same,"MIC, cephalosporin alone",[14],64 µg/mL
same,"MIC, cephalosporin alone",[15],2 µg/mL
same,"MIC, cephalosporin alone",[16],128 µg/mL
same,"MIC, cephalosporin alone",[17],64 µg/mL
same,"MIC, cephalosporin alone",[18],128 µg/mL
same,"MIC, cephalosporin alone",[19],512 µg/mL
same,"MIC, cephalosporin alone",[20],64 µg/mL
same,"MIC, cephalosporin alone",[21],32 µg/mL
"C[C@@H](O)[C@H]1C(=O)N2C(C(=O)O)=C(SCCN=CN)C[C@H]12 [Imipenem, imipenem]",survival,[22],90%
